Source: US20080009418A1, “Selective Inhibitors” (Alchemia LTD., priority 2004, published 2008)

Columns and labels:
Human opioid (ORL1) = molecular target: T1, Human opioid (ORL1) (Homo sapiens, UniProt P41146); assay: Radioligand binding, human opioid ORL1 membranes, FlashPlate, [125I]-Nociceptin; details: compound at 10 μM; [125I]-Nociceptin, human ORL1 membranes
T1 construct: purchased Perkin Elmer Biosignal
Summary of the method: (§1)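 Cloned human receptor membranes were coated onto FlashPlate wells and incubated with radioligand and compound (added from a 0.5 mM DMSO daughter plate) for 1 hour at room temperature in the dark. Scintillation counting gave percent inhibition, with DMSO defining total and reference ligand defining non-specific binding.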

[1] = molecular target: T2, Human melanin-concentrating hormone (MCH1) (Homo sapiens, UniProt Q99705); assay: Radioligand binding, human melanin-concentrating hormone MCH1 membranes, FlashPlate, [125I]-S36057; details: compound at 10 μM; [125I]-S36057, human MCH1 membranes
T2 construct: purchased Perkin Elmer Biosignal
T2 sequence (Q99705 whole entry): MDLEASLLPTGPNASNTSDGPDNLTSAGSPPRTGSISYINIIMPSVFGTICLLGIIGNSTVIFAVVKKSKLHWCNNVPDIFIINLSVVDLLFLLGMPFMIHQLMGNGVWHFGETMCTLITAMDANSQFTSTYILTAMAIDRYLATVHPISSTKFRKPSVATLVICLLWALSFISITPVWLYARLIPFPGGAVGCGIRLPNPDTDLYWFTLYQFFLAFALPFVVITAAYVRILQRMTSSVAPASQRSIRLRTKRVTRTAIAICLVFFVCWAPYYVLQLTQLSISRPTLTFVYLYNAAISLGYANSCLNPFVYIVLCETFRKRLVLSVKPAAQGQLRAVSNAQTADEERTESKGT
Summary of the method: as §1

Human neurokinin (NK1) = molecular target: T3, Human neurokinin (NK1) (Homo sapiens, UniProt P25103); assay: Radioligand binding, human neurokinin NK1 membranes, filtration, [125I]-Substance P; details: compound at 10 μM; [125I]-Substance P, human NK1 membranes
T3 construct: purchased Perkin Elmer Biosignal
T3 sequence (P25103 whole entry): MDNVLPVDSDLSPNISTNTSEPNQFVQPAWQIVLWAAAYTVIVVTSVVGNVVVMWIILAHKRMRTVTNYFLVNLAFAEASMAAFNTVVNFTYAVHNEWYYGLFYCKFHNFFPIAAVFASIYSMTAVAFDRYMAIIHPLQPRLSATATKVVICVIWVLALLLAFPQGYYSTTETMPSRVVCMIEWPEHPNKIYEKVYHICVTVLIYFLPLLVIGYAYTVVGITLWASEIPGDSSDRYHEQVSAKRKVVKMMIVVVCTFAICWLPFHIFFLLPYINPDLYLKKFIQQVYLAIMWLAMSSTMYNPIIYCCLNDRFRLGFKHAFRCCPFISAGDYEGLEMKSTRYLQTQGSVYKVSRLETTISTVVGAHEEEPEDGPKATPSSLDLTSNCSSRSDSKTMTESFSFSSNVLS
Summary of the method: (§2)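 Membranes from cloned human receptors were incubated with compound and radioligand for 1 hour at room temperature. Bound ligand was collected on 0.3% PEI-soaked filters, washed with cold 50 mM Tris-HCl pH 7.4, and counted by scintillation. Percent inhibition was computed against DMSO totals and reference-ligand nonspecific wells.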

Human κ-Opioid (KOP) = molecular target: T4, Human κ-Opioid (KOP) (Homo sapiens, UniProt P41145); assay: Radioligand binding, human κ-opioid (KOP) membranes, filtration, [3H]-Diprenorphine; details: compound at 10 μM; [3H]-Diprenorphine, human KOP membranes
T4 construct: purchased Perkin Elmer Biosignal
T4 sequence (P41145 whole entry): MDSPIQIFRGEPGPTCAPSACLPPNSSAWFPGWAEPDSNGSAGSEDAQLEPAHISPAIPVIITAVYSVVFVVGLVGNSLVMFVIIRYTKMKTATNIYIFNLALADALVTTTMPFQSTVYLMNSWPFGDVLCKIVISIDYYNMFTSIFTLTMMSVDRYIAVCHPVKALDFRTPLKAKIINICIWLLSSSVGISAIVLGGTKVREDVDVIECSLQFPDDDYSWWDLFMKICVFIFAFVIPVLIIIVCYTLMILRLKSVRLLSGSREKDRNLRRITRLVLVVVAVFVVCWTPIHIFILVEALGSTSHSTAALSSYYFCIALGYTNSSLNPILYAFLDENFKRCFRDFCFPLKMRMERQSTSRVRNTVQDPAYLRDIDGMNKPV
Summary of the method: as §2

Human δ-opioid (DOP) = molecular target: T5, Human δ-opioid (DOP) (Homo sapiens, UniProt P41143); assay: Radioligand binding, human δ-opioid (DOP) membranes, FlashPlate, [3H]-Bremazocine; details: compound at 10 μM; [3H]-Bremazocine, human DOP membranes
T5 construct: purchased Perkin Elmer Biosignal
T5 sequence (P41143 whole entry): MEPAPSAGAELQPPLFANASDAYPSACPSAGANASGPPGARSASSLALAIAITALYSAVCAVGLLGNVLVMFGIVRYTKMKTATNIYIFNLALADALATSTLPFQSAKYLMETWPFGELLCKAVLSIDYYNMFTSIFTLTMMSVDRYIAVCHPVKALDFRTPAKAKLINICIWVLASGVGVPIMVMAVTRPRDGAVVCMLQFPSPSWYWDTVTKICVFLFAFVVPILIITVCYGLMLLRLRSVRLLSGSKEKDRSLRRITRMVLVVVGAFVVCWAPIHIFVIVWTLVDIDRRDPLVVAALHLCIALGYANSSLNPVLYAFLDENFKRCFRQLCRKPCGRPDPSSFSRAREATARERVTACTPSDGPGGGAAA
Summary of the method: as §1

Mouse urotensin (mUR2) = molecular target: T6, Mouse urotensin (mUR2) (Mus musculus, UniProt Q8VIH9); assay: Radioligand binding, mouse urotensin mUR2 membranes, FlashPlate, [125I]-Urotensin II; details: compound at 10 μM; [125I]-Urotensin II, mouse mUR2 membranes
T6 construct: purchased Perkin Elmer Biosignal
T6 sequence (Q8VIH9 1-385): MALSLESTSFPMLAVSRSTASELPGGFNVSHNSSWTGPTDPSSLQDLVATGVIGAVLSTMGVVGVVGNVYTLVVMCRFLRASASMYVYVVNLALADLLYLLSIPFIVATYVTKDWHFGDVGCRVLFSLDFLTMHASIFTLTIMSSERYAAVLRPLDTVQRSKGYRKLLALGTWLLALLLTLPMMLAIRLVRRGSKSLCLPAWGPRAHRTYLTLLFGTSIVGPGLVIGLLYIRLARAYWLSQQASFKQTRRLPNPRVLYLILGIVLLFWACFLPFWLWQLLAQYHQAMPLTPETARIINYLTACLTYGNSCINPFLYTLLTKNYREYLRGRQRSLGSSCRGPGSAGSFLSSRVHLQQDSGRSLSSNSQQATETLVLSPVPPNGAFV
Summary of the method: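 Cloned mouse urotensin (mUR2) receptor membranes from Perkin Elmer Biosignal were immobilized in FlashPlate microplates using a proprietary coating. Each well got 19.5 μl buffer, then 0.5 μl of DMSO, reference ligand, or compound. Adding 5 μl of [125I]-Urotensin II, diluted to 5× final concentration in binding buffer, started binding. Plates were sealed with TopSeal-A and incubated 1 hour at room temperature in the dark. Wells were counted for 30 seconds each on a TopCount after a 60-second delay, and percentage inhibition was calculated.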

Human Melanocortin (MC4) = molecular target: T7, Human Melanocortin (MC4) (Homo sapiens, UniProt P32245); assay: Radioligand binding, human melanocortin MC4 membranes, FlashPlate, [125I]-NDP-αMSH; details: compound at 10 μM; [125I]-NDP-αMSH, human MC4 membranes
T7 construct: purchased Perkin Elmer Biosignal
T7 sequence (P32245 whole entry): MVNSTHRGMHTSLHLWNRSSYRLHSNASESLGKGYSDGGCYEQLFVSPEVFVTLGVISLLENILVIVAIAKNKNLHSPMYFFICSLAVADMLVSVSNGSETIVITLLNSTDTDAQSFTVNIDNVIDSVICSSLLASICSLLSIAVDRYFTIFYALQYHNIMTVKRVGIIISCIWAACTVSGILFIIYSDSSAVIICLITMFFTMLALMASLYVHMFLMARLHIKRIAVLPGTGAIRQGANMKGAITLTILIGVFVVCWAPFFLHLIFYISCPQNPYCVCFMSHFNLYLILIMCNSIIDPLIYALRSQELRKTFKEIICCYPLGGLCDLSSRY
Summary of the method: as §1

Human melanocortin (MC5) = molecular target: T8, Human melanocortin (MC5) (Homo sapiens, UniProt P33032); assay: Radioligand binding, human melanocortin MC5 membranes, FlashPlate, [125I]-NDP-αMSH; details: compound at 10 μM; [125I]-NDP-αMSH, human MC5 membranes
T8 construct: purchased Perkin Elmer Biosignal
T8 sequence (P33032 whole entry): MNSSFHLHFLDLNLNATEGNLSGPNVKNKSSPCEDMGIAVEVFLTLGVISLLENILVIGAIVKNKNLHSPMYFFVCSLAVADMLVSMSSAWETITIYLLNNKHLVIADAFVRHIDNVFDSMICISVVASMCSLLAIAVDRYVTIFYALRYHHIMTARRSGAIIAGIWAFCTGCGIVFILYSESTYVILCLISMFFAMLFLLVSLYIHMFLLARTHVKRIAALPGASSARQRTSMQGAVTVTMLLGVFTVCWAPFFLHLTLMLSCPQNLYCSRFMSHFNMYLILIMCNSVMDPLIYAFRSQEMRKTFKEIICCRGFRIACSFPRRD
Summary of the method: as §1

[2] = molecular target: T9, Human neuropeptide Y (NPY-Y1) (Homo sapiens, UniProt P25929); assay: Radioligand binding, human neuropeptide Y NPY-Y1 membranes, FlashPlate, [125I]-PYY; details: compound at 10 μM; [125I]-PYY, human NPY-Y1 membranes
T9 construct: purchased Perkin Elmer Biosignal
T9 sequence (P25929 1-384): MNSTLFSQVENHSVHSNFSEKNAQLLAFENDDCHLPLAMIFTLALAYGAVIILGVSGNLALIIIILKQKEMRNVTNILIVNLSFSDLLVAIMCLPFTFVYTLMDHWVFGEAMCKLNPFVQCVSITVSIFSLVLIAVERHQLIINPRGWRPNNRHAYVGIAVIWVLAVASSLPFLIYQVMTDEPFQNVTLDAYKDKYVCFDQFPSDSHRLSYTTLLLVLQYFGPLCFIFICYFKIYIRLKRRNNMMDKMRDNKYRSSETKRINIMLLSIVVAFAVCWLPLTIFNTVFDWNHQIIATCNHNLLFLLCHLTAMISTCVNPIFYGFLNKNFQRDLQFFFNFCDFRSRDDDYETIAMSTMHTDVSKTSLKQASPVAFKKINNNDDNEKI
Summary of the method: as §1

Human Melanocortin (MC3) = molecular target: T10, Human Melanocortin (MC3) (Homo sapiens, UniProt P41968); assay: Radioligand binding, human melanocortin MC3 membranes, FlashPlate, [125I]-NDP-αMSH; details: compound at 10 μM; [125I]-NDP-αMSH, human MC3 membranes
T10 construct: purchased Perkin Elmer Biosignal
T10 sequence (P41968 whole entry): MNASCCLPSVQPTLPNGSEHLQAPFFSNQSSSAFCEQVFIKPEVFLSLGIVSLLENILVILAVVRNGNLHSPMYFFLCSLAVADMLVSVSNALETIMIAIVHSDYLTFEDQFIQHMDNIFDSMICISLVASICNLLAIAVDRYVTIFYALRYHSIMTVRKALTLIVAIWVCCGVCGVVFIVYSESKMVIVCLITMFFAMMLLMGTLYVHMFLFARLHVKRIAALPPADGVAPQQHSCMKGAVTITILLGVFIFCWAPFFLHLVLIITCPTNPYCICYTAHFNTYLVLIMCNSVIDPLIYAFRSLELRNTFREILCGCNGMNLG
Summary of the method: as §1

Human μ-opioid (MOP) = molecular target: T11, Human μ-opioid (MOP) (Homo sapiens, UniProt P35372); assay: Radioligand binding, human μ-opioid (MOP) membranes, FlashPlate, [3H]-Naloxone; details: compound at 10 μM; [3H]-Naloxone, human MOP membranes
T11 construct: purchased Perkin Elmer Biosignal
T11 sequence (P35372 whole entry): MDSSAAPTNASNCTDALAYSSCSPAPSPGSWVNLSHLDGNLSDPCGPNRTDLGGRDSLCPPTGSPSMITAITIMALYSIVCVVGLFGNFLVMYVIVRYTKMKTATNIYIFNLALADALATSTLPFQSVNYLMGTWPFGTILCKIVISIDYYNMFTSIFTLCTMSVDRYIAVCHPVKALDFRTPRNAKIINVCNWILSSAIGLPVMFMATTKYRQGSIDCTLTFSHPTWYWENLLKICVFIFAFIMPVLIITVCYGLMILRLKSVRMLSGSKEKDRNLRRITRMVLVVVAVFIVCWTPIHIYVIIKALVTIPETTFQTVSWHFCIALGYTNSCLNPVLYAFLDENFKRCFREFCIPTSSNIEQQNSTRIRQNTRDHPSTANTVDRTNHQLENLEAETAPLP
Summary of the method: as §1

T1 sequence (P41146 whole entry): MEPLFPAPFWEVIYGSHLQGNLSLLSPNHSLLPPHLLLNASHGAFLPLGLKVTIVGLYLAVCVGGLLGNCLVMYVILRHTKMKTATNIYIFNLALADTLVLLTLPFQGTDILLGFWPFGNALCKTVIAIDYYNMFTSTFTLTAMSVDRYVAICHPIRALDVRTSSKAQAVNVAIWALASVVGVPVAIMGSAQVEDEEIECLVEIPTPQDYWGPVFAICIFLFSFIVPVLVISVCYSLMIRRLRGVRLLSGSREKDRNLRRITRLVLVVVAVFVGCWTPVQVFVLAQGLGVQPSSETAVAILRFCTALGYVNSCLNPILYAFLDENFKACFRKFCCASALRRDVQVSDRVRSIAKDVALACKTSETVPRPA

N=C(N)NCCC(=O)NC1C(OCc2ccc(Cl)cc2)OC(COCc2ccccc2)C(O)C1OCc1ccc(Cl)cc1 (stereo not shown) [compound 427]
A10: inhibition of radioligand binding (Human opioid (ORL1)): + (“+” indicates greater than 50% inhibition at 10 μM)
A6: inhibition of radioligand binding [1]: + (“+” indicates greater than 50% inhibition at 10 μM)
A8: inhibition of radioligand binding (Human neurokinin (NK1)): + (“+” indicates greater than 50% inhibition at 10 μM)
A2: inhibition of radioligand binding (Human κ-Opioid (KOP)): − (“−” indicates less than 50% inhibition at 10 μM)
A1: inhibition of radioligand binding (Human δ-opioid (DOP)): − (“−” indicates less than 50% inhibition at 10 μM)
A11: inhibition of radioligand binding (Mouse urotensin (mUR2)): − (“−” indicates less than 50% inhibition at 10 μM)
A4: inhibition of radioligand binding (Human Melanocortin (MC4)): + (“+” indicates greater than 50% inhibition at 10 μM)
A5: inhibition of radioligand binding (Human melanocortin (MC5)): + (“+” indicates greater than 50% inhibition at 10 μM)
A9: inhibition of radioligand binding [2]: − (“−” indicates less than 50% inhibition at 10 μM)
A3: inhibition of radioligand binding (Human Melanocortin (MC3)): + (“+” indicates greater than 50% inhibition at 10 μM)
A7: inhibition of radioligand binding (Human μ-opioid (MOP)): − (“−” indicates less than 50% inhibition at 10 μM)

N=C(N)NCCC(=O)NC1C(OCc2ccc(Cl)cc2)OC(COCc2ccc(Cl)cc2)C(O)C1OCc1ccc(Cl)cc1 (stereo not shown) [compound 428]
A10: inhibition of radioligand binding (Human opioid (ORL1)): + (“+” indicates greater than 50% inhibition at 10 μM)
A6: inhibition of radioligand binding [1]: + (“+” indicates greater than 50% inhibition at 10 μM)
A8: inhibition of radioligand binding (Human neurokinin (NK1)): + (“+” indicates greater than 50% inhibition at 10 μM)
A2: inhibition of radioligand binding (Human κ-Opioid (KOP)): − (“−” indicates less than 50% inhibition at 10 μM)
A1: inhibition of radioligand binding (Human δ-opioid (DOP)): − (“−” indicates less than 50% inhibition at 10 μM)
A11: inhibition of radioligand binding (Mouse urotensin (mUR2)): − (“−” indicates less than 50% inhibition at 10 μM)
A4: inhibition of radioligand binding (Human Melanocortin (MC4)): + (“+” indicates greater than 50% inhibition at 10 μM)
A5: inhibition of radioligand binding (Human melanocortin (MC5)): + (“+” indicates greater than 50% inhibition at 10 μM)
A9: inhibition of radioligand binding [2]: − (“−” indicates less than 50% inhibition at 10 μM)
A3: inhibition of radioligand binding (Human Melanocortin (MC3)): + (“+” indicates greater than 50% inhibition at 10 μM)
A7: inhibition of radioligand binding (Human μ-opioid (MOP)): − (“−” indicates less than 50% inhibition at 10 μM)

N=C(N)NCCC(=O)NC1C(OCc2ccc(Cl)cc2)OC(COCc2ccc3ccccc3c2)C(O)C1OCc1ccc2ccccc2c1 (stereo not shown) [compound 429]
A10: inhibition of radioligand binding (Human opioid (ORL1)): − (“−” indicates less than 50% inhibition at 10 μM)
A6: inhibition of radioligand binding [1]: + (“+” indicates greater than 50% inhibition at 10 μM)
A8: inhibition of radioligand binding (Human neurokinin (NK1)): + (“+” indicates greater than 50% inhibition at 10 μM)
A2: inhibition of radioligand binding (Human κ-Opioid (KOP)): − (“−” indicates less than 50% inhibition at 10 μM)
A1: inhibition of radioligand binding (Human δ-opioid (DOP)): − (“−” indicates less than 50% inhibition at 10 μM)
A11: inhibition of radioligand binding (Mouse urotensin (mUR2)): − (“−” indicates less than 50% inhibition at 10 μM)
A4: inhibition of radioligand binding (Human Melanocortin (MC4)): + (“+” indicates greater than 50% inhibition at 10 μM)
A5: inhibition of radioligand binding (Human melanocortin (MC5)): + (“+” indicates greater than 50% inhibition at 10 μM)
A9: inhibition of radioligand binding [2]: − (“−” indicates less than 50% inhibition at 10 μM)
A3: inhibition of radioligand binding (Human Melanocortin (MC3)): + (“+” indicates greater than 50% inhibition at 10 μM)
A7: inhibition of radioligand binding (Human μ-opioid (MOP)): − (“−” indicates less than 50% inhibition at 10 μM)

N=C(N)NCCC(=O)NC1C(OCc2ccc(Cl)cc2)OC(COCc2ccccc2)C(O)C1OCc1ccc2ccccc2c1 (stereo not shown) [compound 430]
A10: inhibition of radioligand binding (Human opioid (ORL1)): + (“+” indicates greater than 50% inhibition at 10 μM)
A6: inhibition of radioligand binding [1]: + (“+” indicates greater than 50% inhibition at 10 μM)
A8: inhibition of radioligand binding (Human neurokinin (NK1)): + (“+” indicates greater than 50% inhibition at 10 μM)
A2: inhibition of radioligand binding (Human κ-Opioid (KOP)): − (“−” indicates less than 50% inhibition at 10 μM)
A1: inhibition of radioligand binding (Human δ-opioid (DOP)): − (“−” indicates less than 50% inhibition at 10 μM)
A11: inhibition of radioligand binding (Mouse urotensin (mUR2)): − (“−” indicates less than 50% inhibition at 10 μM)
A4: inhibition of radioligand binding (Human Melanocortin (MC4)): + (“+” indicates greater than 50% inhibition at 10 μM)
A5: inhibition of radioligand binding (Human melanocortin (MC5)): + (“+” indicates greater than 50% inhibition at 10 μM)
A9: inhibition of radioligand binding [2]: − (“−” indicates less than 50% inhibition at 10 μM)
A3: inhibition of radioligand binding (Human Melanocortin (MC3)): + (“+” indicates greater than 50% inhibition at 10 μM)
A7: inhibition of radioligand binding (Human μ-opioid (MOP)): − (“−” indicates less than 50% inhibition at 10 μM)

N=C(N)NCCC(=O)NC1C(OCc2ccc(Cl)cc2)OC(COCc2ccc(Cl)cc2)C(O)C1OCc1ccc2ccccc2c1 (stereo not shown) [compound 431]
A10: inhibition of radioligand binding (Human opioid (ORL1)): + (“+” indicates greater than 50% inhibition at 10 μM)
A6: inhibition of radioligand binding [1]: + (“+” indicates greater than 50% inhibition at 10 μM)
A8: inhibition of radioligand binding (Human neurokinin (NK1)): + (“+” indicates greater than 50% inhibition at 10 μM)
A2: inhibition of radioligand binding (Human κ-Opioid (KOP)): − (“−” indicates less than 50% inhibition at 10 μM)
A1: inhibition of radioligand binding (Human δ-opioid (DOP)): − (“−” indicates less than 50% inhibition at 10 μM)
A11: inhibition of radioligand binding (Mouse urotensin (mUR2)): − (“−” indicates less than 50% inhibition at 10 μM)
A4: inhibition of radioligand binding (Human Melanocortin (MC4)): + (“+” indicates greater than 50% inhibition at 10 μM)
A5: inhibition of radioligand binding (Human melanocortin (MC5)): + (“+” indicates greater than 50% inhibition at 10 μM)
A9: inhibition of radioligand binding [2]: − (“−” indicates less than 50% inhibition at 10 μM)
A3: inhibition of radioligand binding (Human Melanocortin (MC3)): + (“+” indicates greater than 50% inhibition at 10 μM)
A7: inhibition of radioligand binding (Human μ-opioid (MOP)): − (“−” indicates less than 50% inhibition at 10 μM)
